Results on five compounds are retold here after patent publication US9150531B2, “Tricyclic lactones for treatment of cancer” (Glactone Pharma Development AB, priority 2010, dated 2015).

The structures appear in SMILES notation. pIC50: −log10 of the molar value. Like-named read-outs stand apart in the source and are kept apart here.

Experiment [1] concerns STAT-3 transcription factor. Put plainly: STAT3 inhibition, luciferase reporter (4xM67 pTATA TK-Luc) in HeLa cells stimulated with γ-Interferon. In kind it is cell-based. The note with it: γ-Interferon 8 h, luciferase activity, read-out: Anti STAT3 IC50. On the procedure:
HeLa cells (4×10^4/ml) were transiently transfected with a luciferase reporter plasmid (4×M67 pTATA TK-Luc) driven by artificial promoter containing 4 repeated M67 binding sites in tandem for the STAT-3 transcription factor. The transfections were performed for 24 h using Roti-Fect reagent (Carl Roth, Karlsruhe, Germany) according to the manufacturer's recommendations. After incubation with different concentrations of the extracts for 30 min the transfected cells were stimulated for 8 h with γ-Interferon. Then, the cells were lysed in 25 mM Tris-phosphate pH 7.8, 8 mM MgCl2, 1 mM DTT, 1% Triton X-100, and 7% glycerol. Luciferase activity was measured as described for 5.1 cells.
γ-Interferon induces an average of 5-6 fold induction of the luciferase activity compared to non stimulated cells and this represent the index of transactivation that is represented in our experiment as the maximum levels of γ-Interferon-induced STAT-3 activation (100%). Results below represent the IC50 for each compound in this assay. The IC50 means the concentration of each compound that reduces luciferase activity by 50% and it was calculated by GraphPad software.

A further experiment has as its system LNCaP-IL6 cells. Briefly: WST-1 proliferation assay, LNCaP-IL6 cells. Type of experiment: cell-based, human. On the procedure:
(§1) The human prostate cancer cell lines DU145, LNCaP (from the American Type culture Collection, ATCC) and long-term interleukin-6 (IL-6) stimulated LNCaP cells (LNCaP-IL6 cells) (Hobisch, Ramoner et al. 2001) were used. The cells were cultured in RPMI 1640 medium supplemented with 10% FBS and 1% penicillin-streptomycin. All cells were incubated at 37° C. in a humidified atmosphere of […] and 5% CO2.
(§2) WST-1 proliferation assay was performed to study the effects of the test items on the proliferation and viability of cultured prostate cancer cells. LNCaP and DU145 cells were cultured in 96-well plates at the density of 2 000 cells/well in 200 μl of medium. Cells were allowed to set for 24 h. The cells were treated with 0, 2.5, 5 or 10 μM of the specific substance for 24 h and 48 h. Samples were made in triplicate. 20 μl WST-1 solution (Roche Applied Science, Mannheim, Germany) was added per well and incubated at 37° C. for 4 h. The absorbance of each well was measured using a scanning multiwell spectrophotometer, ELISA reader at a wavelength of 450 nm and reference wavelength of 690 nm. The results are presented as percent of untreated control cells or the absorbance value.

The test system of experiment [2] is DU145. Briefly: WST-1 proliferation assay, DU145 cells (Example 16). In kind it is cell-based, human. The protocol: as §1, §2
Another experiment has as its system NF-κB. Put plainly: NF-κB-dependent transcriptional activity, Jurkat-LTR-Luc (Jurkat 5.1) cells stimulated with TNF-α. Type of experiment: cell-based. The note with it: TNF-α (2 ng/ml) 6 h, luciferase activity, read-out: IC50 anti-NF-κB. On the procedure: The potency of (−)-Galiellalactone and compound examples of the invention in inhibiting NF-κB-dependent transcriptional activity was assayed in a Jurkat-LTR-Luc cell line. This cellular model have been widely used for the screening of natural and synthetic NF-κB inhibitors (Appendino et al, J Nat Prod. 2007, 70(4), 608-612; J Nat Prod. 2006, 69(7), 1101-1104; Marquez et al, Antiviral Res. 2005, 66(2-3), 137-145) Jurkat 5.1 cells were preincubated for 30 min with increasing concentrations of the compounds dissolved in DMSO followed by stimulation with TNF-α (2 ng/ml) for 6 h. Cells were washed twice in PBS and lysed in 25 mM Tris-phosphate, pH 7.8, 8 mM MgCl2, 1 mM DTT, 1% Triton X-100, and 7% glycerol for 15 min at room temperature. Then the lysates were spun down and the supernatant was used to measure luciferase activity using an Autolumat LB 9510 (Berthold Technologies). Protein concentration was determined by the Bradford method (Bio-Rad, Richmond, Calif.). Results below represent the 1050 for each compound in this assay.

Another experiment deals with IL-6/STAT3 signaling. The note with it: background statement; cited from earlier work.
In experiment [3] the test system is DU145. Briefly: WST-1 proliferation assay, DU145 cells (Example 17). In kind it is cell-based, human. On the procedure:
The human prostate cancer cell line DU145 was used. The cells were cultured in RPMI 1640 medium supplemented with 10% FBS and 1% penicillin-streptomycin. All cells were incubated at 37° C. in a humidified atmosphere of […] and 5% CO2.
WST-1 proliferation assay was performed to study the effects of the test items on the proliferation and viability of cultured prostate cancer cells. DU145 cells were cultured in 96-well plates at the density of 2 000 cells/well in 200 μl of medium. Cells were allowed to set for 24 h and 48 h. The cells were treated with 0.5, 1.0, 2.5, 5.0, 10, and 50 μM of the specific substance for 24 h and 48 h. Samples were made in triplicate. 20 μl WST-1 solution (Roche Applied Science, Mannheim, Germany) was added per well and incubated at 37° C. for 4 h. The absorbance of each well was measured using a scanning multiwell spectrophotometer, ELISA reader at a wavelength of 450 nm and reference wavelength of 690 nm. The results are presented as percent of untreated control cells or the absorbance value.

The subject of experiment [4] is DU145. Described as above. In kind it is cell-based, human. The note with it: 25.0 μM.

For the compound `C[C@@H]1C=C2C(=O)O[C@@H]3CC[C@H](C1)C23O` (single isomer, unassigned; (-)) [(−)-Galiellalactone, reference compound], the pIC50 in experiment [1] was 5.11; in the experiment with NF-κB, 5.26. The “% Proliferation (vs control) 24 h LNCaP-IL6” value in the experiment on LNCaP-IL6 cells (2.5 uM) was determined as 90.91%; in the experiment with LNCaP-IL6 cells (5 uM) it was 68.76%; in the experiment with LNCaP-IL6 cells (10 uM), 77.11%. For the same compound, the “% Proliferation (vs control) 48 h LNCaP-IL6” value was determined as 96.78% with LNCaP-IL6 cells (2.5 uM), 68.76% in the experiment with LNCaP-IL6 cells (5 uM) and 23.22% in the experiment with LNCaP-IL6 cells (10 uM). Besides, the “% Proliferation (vs control) 24 h DU145” value stood at 84.24% in the experiment on DU145 [2] (2.5 uM), 63.19% in the experiment on DU145 [2] (5 uM) and 48.44% with DU145 [2] (10 uM). Moreover, the “% Proliferation (vs control) 48 h Du145” value turned out to be 76.36% with DU145 [2] (2.5 uM), 38.51% with DU145 [2] (5 uM) and 22.24% with DU145 [2] (10 uM). Also, the “inhibition of IL-6/STAT3 signaling” value with IL-6/STAT3 signaling is “submicromolar”.

On to `O=C1O[C@@H]2[C@H](Cc3ccccc3)C[C@@H]3CCC=C1[C@@]32O` (stereo in doubt) [Example 6, 5,5a,6,7,7a,7b-hexahydro-7b-hydroxy-7-benzyl-indeno[1,7-bc]furan-2(4H)-one], for which the “Proliferation (vs control) Du145 (%) 24 h” value in the experiment on DU145 [3] (0.5 μM) is listed as 110.14%; in the experiment with DU145 [3] (1.0 μM), 98.76%; in the experiment on DU145 [3] (2.5 μM), 104.13%; in the experiment on DU145 [3] (5.0 μM), 81.25%; in the experiment with DU145 [3] (10.0 μM), 43.88%; in the experiment on DU145 [3] (50.0 μM) it was 23.59%. Also, the “Proliferation (vs control) Du145 (%) 24 h” value with DU145 [4] (24 h) stood at 45.01%. Moreover, the “Proliferation (vs control) Du145 (%) 48 h” value turned out to be 121.11% in the experiment with DU145 [3] (0.5 μM); 120.77% in the experiment on DU145 [3] (1.0 μM); 101.61% in the experiment on DU145 [3] (2.5 μM); 78.86% in the experiment with DU145 [3] (5.0 μM); 42.70% with DU145 [3] (10.0 μM); 9.88% with DU145 [3] (50.0 μM). Besides, in the experiment on DU145 [4] (48 h), the “Proliferation (vs control) Du145 (%) 48 h” value is 23.80%.

Consider `C[C@H]1C=C2C(=O)OC3C(C)(C)C[C@H](C1)[C@]23O` (some centres unmarked) [Example 1, 2a^1-hydroxy-4,7,7-trimethyl-4,5,5a,6,7,7a-hexahydroindeno[1,7-bc]furan-2(2a^1H)-one], for which the pIC50 in experiment [1] (Homo sapiens) is 5.68; in the experiment with NF-κB (Homo sapiens), 5.58. In addition, the figures for the “% Proliferation (vs control) 24 h LNCaP-IL6” value in the experiment with LNCaP-IL6 cells (2.5 uM), in the experiment on LNCaP-IL6 cells (5 uM) and with LNCaP-IL6 cells (10 uM) were 65.41%, 68.95% and 69.23%, respectively. The results for the “% Proliferation (vs control) 48 h LNCaP-IL6” value in the experiment with LNCaP-IL6 cells (2.5 uM), with LNCaP-IL6 cells (5 uM) and with LNCaP-IL6 cells (10 uM) were 52.42%, 26.28% and 16.19%, respectively. Besides, the “% Proliferation (vs control) 24 h DU145” value in the experiment with DU145 [2] (2.5 uM) is on record as 80.19%; in the experiment on DU145 [2] (5 uM) it was 68.82%; in the experiment with DU145 [2] (10 uM), 54.07%. Moreover, the “% Proliferation (vs control) 48 h Du145” value was found to be 67.45% in the experiment on DU145 [2] (2.5 uM), 35.62% in the experiment on DU145 [2] (5 uM) and 22.77% in the experiment on DU145 [2] (10 uM).

Consider `C[C@H]1C=C2C(=O)OC3[C@H](c4ccccc4)C[C@H](C1)[C@]23O` (some centres unmarked) [Example 2, 2a^1-hydroxy-4-methyl-7-phenyl-4,5,5a,6,7,7a-hexahydroindeno[1,7-bc]furan-2(2a^1H)-one], for which the results for the pIC50 (in experiment [1] (Homo sapiens); in the experiment with NF-κB (Homo sapiens)) were 5.93 and 6.48, respectively. Moreover, the “% Proliferation (vs control) 24 h LNCaP-IL6” value in the experiment with LNCaP-IL6 cells (2.5 uM) is 81.79%; in the experiment on LNCaP-IL6 cells (5 uM) it was 81.21%; in the experiment with LNCaP-IL6 cells (10 uM), 70.45%. Moreover, the “% Proliferation (vs control) 48 h LNCaP-IL6” value worked out at 79.56% in the experiment on LNCaP-IL6 cells (2.5 uM), 57.14% in the experiment with LNCaP-IL6 cells (5 uM) and 20.19% with LNCaP-IL6 cells (10 uM). The “% Proliferation (vs control) 24 h DU145” value in the experiment with DU145 [2] (2.5 uM) turned out to be 90.64%; in the experiment with DU145 [2] (5 uM) it was 68.55%; in the experiment with DU145 [2] (10 uM), 63.86%. Also, the results for the “% Proliferation (vs control) 48 h Du145” value in the experiment on DU145 [2] (2.5 uM), with DU145 [2] (5 uM) and with DU145 [2] (10 uM) were 68.04%, 34.07% and 30.26%, respectively.

Turning to `C[C@H]1C=C2C(=O)OC3[C@H](Cc4ccccc4)C[C@H](C1)[C@]23O` (some centres unmarked) [Example 3, 7-benzyl-2a^1-hydroxy-4-methyl-4,5,5a,6,7,7a-hexahydroindeno[1,7-bc]furan-2(2a^1H)-one], the pIC50 in experiment [1] (Homo sapiens) was 5.54; in the experiment with NF-κB (Homo sapiens), 5.90. Moreover, the “% Proliferation (vs control) 24 h LNCaP-IL6” value with LNCaP-IL6 cells (2.5 uM) is 57.10%; in the experiment with LNCaP-IL6 cells (5 uM), 59.00%; in the experiment on LNCaP-IL6 cells (10 uM), 53.01%. For the same compound, the “% Proliferation (vs control) 48 h LNCaP-IL6” value in the experiment on LNCaP-IL6 cells (2.5 uM) is listed as 27.82%; in the experiment on LNCaP-IL6 cells (5 uM) it was 18.15%; in the experiment on LNCaP-IL6 cells (10 uM) it was 12.49%. The “% Proliferation (vs control) 24 h DU145” value in the experiment with DU145 [2] (2.5 uM) is on record as 56.33%; with DU145 [2] (5 uM), 52.11%; with DU145 [2] (10 uM) it was 44.48%. For the same compound, the “% Proliferation (vs control) 48 h Du145” value in the experiment with DU145 [2] (2.5 uM) is listed as 31.10%; in the experiment with DU145 [2] (5 uM), 18.38%; in the experiment with DU145 [2] (10 uM), 14.45%.
